Experimental data as given in the NIST ThermoML archive (doi:10.1016/j.jct.2016.07.017).

Columns and labels:
[1] = for viscosity / mass density: 101.33 kPa; for viscosity / mass density / surface tension liquid-gas: Liquid; for viscosity: Falling or rolling sphere viscometry; for mass density: Vibrating tube method; for surface tension liquid-gas: Ring tensiometer
[2] = activity coefficient (dimensionless); of the first substance listed, at infinite dilution; xn = mol fraction of the nth substance listed; details: 101.33 kPa, Liquid, Chromatography, x1 = 0

CC[N+](C)(CC)CCOC.O=S(=O)([N-]S(=O)(=O)C(F)(F)F)C(F)(F)F
[1]
Details	mass density [kg/m3]	surface tension liquid-gas [mN/m]	viscosity [mPa·s]
288.15 K	1416.6	–	120.6
298.15 K	1407.33	33.6	70.96
308.15 K	1398.12	32.6	45.36
318.15 K	1389	32.1	30.96
328.15 K	1379.94	31.6	22.23
338.15 K	1370.78	31.3	16.58
348.15 K	1361.55	–	12.79
358.15 K	1352.39	–	10.18
368.15 K	1343.38	–	8.19

Details	Glass transition temperature [°C]
[1], Glass, DSC	-93.7

CC(C)CC(C)(C)C [2,2,4-trimethylpentane] + CC[N+](C)(CC)CCOC.O=S(=O)([N-]S(=O)(=O)C(F)(F)F)C(F)(F)F
[2]
Details	activity coefficient
318.15 K	25.7
328.15 K	23.8
338.15 K	21.7
348.15 K	21
358.15 K	20

CCCC(=O)CC [3-hexanone] + CC[N+](C)(CC)CCOC.O=S(=O)([N-]S(=O)(=O)C(F)(F)F)C(F)(F)F
[2]
Details	activity coefficient
318.15 K	1.21
328.15 K	1.22
338.15 K	1.23
348.15 K	1.24
358.15 K	1.25

O [water] + CC[N+](C)(CC)CCOC.O=S(=O)([N-]S(=O)(=O)C(F)(F)F)C(F)(F)F
[2]
Details	activity coefficient
318.15 K	1.9
328.15 K	1.73
338.15 K	1.6
348.15 K	1.46
358.15 K	1.32

CC1CCCCC1 [methylcyclohexane] + CC[N+](C)(CC)CCOC.O=S(=O)([N-]S(=O)(=O)C(F)(F)F)C(F)(F)F
[2]
Details	activity coefficient
318.15 K	14.9
328.15 K	13.8
338.15 K	12.9
348.15 K	12
358.15 K	11.2

CC(C)=O [acetone] + CC[N+](C)(CC)CCOC.O=S(=O)([N-]S(=O)(=O)C(F)(F)F)C(F)(F)F
[2]
Details	activity coefficient
318.15 K	0.484
328.15 K	0.491
338.15 K	0.499
348.15 K	0.509
358.15 K	0.518

Cc1ccccc1 [toluene] + CC[N+](C)(CC)CCOC.O=S(=O)([N-]S(=O)(=O)C(F)(F)F)C(F)(F)F
[2]
Details	activity coefficient
318.15 K	1.47
328.15 K	1.48
338.15 K	1.5
348.15 K	1.52
358.15 K	1.53

CCO [ethanol] + CC[N+](C)(CC)CCOC.O=S(=O)([N-]S(=O)(=O)C(F)(F)F)C(F)(F)F
[2]
Details	activity coefficient
318.15 K	1.77
328.15 K	1.62
338.15 K	1.5
348.15 K	1.38
358.15 K	1.28

CCCCO [butan-1-ol] + CC[N+](C)(CC)CCOC.O=S(=O)([N-]S(=O)(=O)C(F)(F)F)C(F)(F)F
[2]
Details	activity coefficient
318.15 K	2.96
328.15 K	2.63
338.15 K	2.39
348.15 K	2.18
358.15 K	2

C1=CCCCC1 [cyclohexene] + CC[N+](C)(CC)CCOC.O=S(=O)([N-]S(=O)(=O)C(F)(F)F)C(F)(F)F
[2]
Details	activity coefficient
318.15 K	5.83
328.15 K	5.56
338.15 K	5.33
348.15 K	5.16
358.15 K	4.93

C1CCCCCCC1 [cyclooctane] + CC[N+](C)(CC)CCOC.O=S(=O)([N-]S(=O)(=O)C(F)(F)F)C(F)(F)F
[2]
Details	activity coefficient
318.15 K	20.4
328.15 K	18.6
338.15 K	17
348.15 K	15.7
358.15 K	14.5

CCCOCCC [dipropyl ether] + CC[N+](C)(CC)CCOC.O=S(=O)([N-]S(=O)(=O)C(F)(F)F)C(F)(F)F
[2]
Details	activity coefficient
318.15 K	6.84
328.15 K	6.58
338.15 K	6.41
348.15 K	6.25
358.15 K	6.07

CCC(C)(C)OC [2-methoxy-2-methylbutane] + CC[N+](C)(CC)CCOC.O=S(=O)([N-]S(=O)(=O)C(F)(F)F)C(F)(F)F
[2]
Details	activity coefficient
318.15 K	3.87
328.15 K	3.86
338.15 K	3.83
348.15 K	3.8
358.15 K	3.76

CCCCCCCC [octane] + CC[N+](C)(CC)CCOC.O=S(=O)([N-]S(=O)(=O)C(F)(F)F)C(F)(F)F
[2]
Details	activity coefficient
318.15 K	38.3
328.15 K	34.8
338.15 K	31.9
348.15 K	29.5
358.15 K	27

C1CCCCCC1 [cycloheptane] + CC[N+](C)(CC)CCOC.O=S(=O)([N-]S(=O)(=O)C(F)(F)F)C(F)(F)F
[2]
Details	activity coefficient
318.15 K	14.9
328.15 K	13.7
338.15 K	12.7
348.15 K	11.8
358.15 K	11

CCCCCCCCC [nonane] + CC[N+](C)(CC)CCOC.O=S(=O)([N-]S(=O)(=O)C(F)(F)F)C(F)(F)F
[2]
Details	activity coefficient
318.15 K	55.7
328.15 K	50
338.15 K	45.3
348.15 K	41
358.15 K	37.7

CCC(=O)CC [pentan-3-one] + CC[N+](C)(CC)CCOC.O=S(=O)([N-]S(=O)(=O)C(F)(F)F)C(F)(F)F
[2]
Details	activity coefficient
318.15 K	0.852
328.15 K	0.873
338.15 K	0.889
348.15 K	0.906
358.15 K	0.916

C#CCCCCC [1-heptyne] + CC[N+](C)(CC)CCOC.O=S(=O)([N-]S(=O)(=O)C(F)(F)F)C(F)(F)F
[2]
Details	activity coefficient
318.15 K	4.47
328.15 K	4.43
338.15 K	4.39
348.15 K	4.35
358.15 K	4.29
